This test deals with T1, Farnesyltransferase (FTase) (Bos taurus, UniProt P29702+P49355).
T1 construct: precipitation from a beef brain homogenate; from tissue; host or cells: bovine brain
Nature of the test: Farnesyltransferase inhibition (scintillation proximity assay, [3H]-FPP / biotin-K-ras peptide). The test is classed as biochemical, bovine. In outline:
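Bovine brain FTase, partially purified by 30–50% saturated ammonium sulfate precipitation and DEAE Sepharose chromatography, separated from GGTase I/II. Scintillation proximity read-out of [3H]-FPP transfer to biotin-K-ras peptide, counted 1 h after quench. Compounds added from ethanol with 10-fold dilution into assay.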
(In general: In a scintillation proximity assay essentially only radioactivity close to the scintillant gives light.)

[1] abbreviates: compound at 10^−6 M, bovine FTase, 37° C., 30 minutes.

Where a name gives a salt, the structure may show the parent alone. Read-outs that look alike come from different tables or passages of the source.

What is called inhibition is the relative decrease from the control value, in per cent. The low end stands for a weak effect, the high end for a strong effect. As a reminder, the % Inhibition is the change of the read-out against control, counted positive when it falls. Low readings indicate little suppression, high ones strong suppression.

T1 sequence (P49355 whole entry, one chain of several): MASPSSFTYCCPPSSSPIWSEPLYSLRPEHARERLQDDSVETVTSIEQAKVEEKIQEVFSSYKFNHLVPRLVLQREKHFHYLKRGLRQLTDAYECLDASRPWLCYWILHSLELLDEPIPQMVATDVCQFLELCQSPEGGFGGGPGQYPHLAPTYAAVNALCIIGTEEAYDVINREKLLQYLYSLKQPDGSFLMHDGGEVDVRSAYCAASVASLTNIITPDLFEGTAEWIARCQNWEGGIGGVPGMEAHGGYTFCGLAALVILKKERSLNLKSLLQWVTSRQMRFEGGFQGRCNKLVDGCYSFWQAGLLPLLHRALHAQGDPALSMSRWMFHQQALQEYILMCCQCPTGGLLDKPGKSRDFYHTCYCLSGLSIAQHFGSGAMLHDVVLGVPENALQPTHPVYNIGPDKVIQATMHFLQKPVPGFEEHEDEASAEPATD

Under setting [1], `Cn1cncc1C(NC1CCN(C(=O)OCc2ccccc2)CC1)c1ccc(C#N)c(-c2cccc3ccccc23)c1` (stereo not shown) [Example 54, benzyl 4-(((4-cyano-3-(1-naphthyl)phenyl)(1-methyl-1H-imidazol-5-yl)methyl)amino)-1-piperidinecarboxylate dihydrochloride] had an inhibition at 1 µM of 100%. `Cc1ccccc1-c1cc(C(OCc2cc(F)ccc2F)c2cncn2C)ccc1C#N` (stereo not shown) [Example 129, 5-(((2,5-difluorobenzyl)oxy)(1-methyl-1H-imidazol-5-yl)methyl)-2′-methyl(1,1′-biphenyl)-2-carbonitrile hydrochloride]: the inhibition at 1 µM under setting [1] was determined as 93%.

Compound `Cn1cncc1CN(Cc1ccc(C#N)c(-c2cccc3ccccc23)c1)Cc1cc(OC(F)(F)F)ccc1O` [Example 207, 4-(((2-hydroxy-5-(trifluoromethoxy)benzyl)((1-methyl-1H-imidazol-5-yl)methyl)-amino)methyl)-2-(1-naphthyl)benzonitrile] displayed an inhibition at 1 µM under setting [1] of 91%.

`Cc1ccccc1-c1cc(C(OCc2ccc(C(=O)N(C)C)cc2)c2cncn2C)ccc1C#N` (stereo not shown) [Example 190, 4-(((6-cyano-2′-methyl(1,1′-biphenyl)-3-yl)(1-methyl-1H-imidazol-5-yl)methoxy)methyl)-N,N-dimethylbenzamide]: the inhibition at 1 µM under setting [1] was found to be 90%. `Cn1cncc1C(OCc1ccc(Cl)c(Cl)c1)c1ccc(C#N)c(-c2ccccc2C(F)(F)F)c1` (stereo not shown) [Example 248, 5-(((3,4-dichlorobenzyl)oxy)(1-methyl-1H-imidazol-5-yl)methyl)-2′-(trifluoromethyl)(1,1′-biphenyl)-2-carbonitrile hydrochloride] registered an inhibition at 1 µM under setting [1] of 98%. Under setting [1], `COC(=O)c1ccc(COC(c2ccc(C#N)c(-c3ccccc3C)c2)c2cncn2C)cc1` (stereo not shown) [Example 130, methyl 4-(((6-cyano-2′-methyl(1,1′-biphenyl)-3-yl)(1-methyl-1H-imidazol-5-yl)methoxy)methyl)benzoate hydrochloride] came in with an inhibition at 1 µM of 97%. In the case of `Cn1cncc1CN(Cc1ccc(C#N)cc1)C(=O)c1ccc(C#N)c(-c2cccc3ccccc23)c1` [Example 191, 4-cyano-N-(4-cyanobenzyl)-N-((1-methy-1H-imidazol-5-yl)methyl)-3-(1-naphthyl)benzamide], the “% Inhibition at 10^−6M” value under setting [1] turned out to be 99%. `COC(=O)c1ccc(CNC(c2ccc(C#N)c(-c3cccc4ccccc34)c2)c2cncn2C)nc1` (stereo not shown) [Example 52, methyl 6-((((4-cyano-3-(1-naphthyl)phenyl)(1-methyl-1H-imidazol-5-yl)methyl)amino)methyl)nicotinate trihydrochloride] had an inhibition at 1 µM under setting [1] of 100%. Same read-out and setting: then `N#Cc1ccc(CN(CCC2CCCCC2)C(=O)Cn2ccnc2)cc1-c1cccc2ccccc12` [Example 85, N-(4-cyano-3-(1-naphthyl)benzyl)-N-(2-cyclohexylethyl)-2-(1H-imidazol-1-yl)acetamide], with 46%. Under setting [1], `Cc1ccccc1-c1cc(C(OCc2ccc(C(C)(C)C)cc2)c2cncn2C)ccc1C#N` (stereo not shown) [Example 115, 5-(((4-(tert-butyl)benzyl)oxy)(1-methyl-1H-imidazol-5-yl)methyl)-2′-methyl(1,1′-biphenyl)-2-carbonitrile hydrochloride] showed an inhibition at 1 µM of 89%.

With `N#Cc1ccc(COC(c2ccsc2)c2ccc(C#N)c(-c3cccc4ccccc34)c2)nc1` (stereo not shown) [Example 289, 6-(((4-cyano-3-(1-naphthyl)phenyl)(3-thienyl)methoxy)methyl)nicotinonitrile], the inhibition at 1 µM under setting [1] turned out to be 75%. Same read-out and setting: the figure for `COc1cc(COC(c2ccc(C#N)c(-c3ccccc3C)c2)c2cncn2C)cc(OC)c1` (stereo not shown) [Example 150, 5-(((3,5-dimethoxybenzyl)oxy)(1-methyl-1H-imidazol-5-yl)methyl)-2′-methyl(1,1′-biphenyl)-2-carbonitrile hydrochloride] is 93%; for `Cn1cncc1C(OCc1ccccc1)c1ccc(C#N)c(-c2ccc3c4c(cccc24)CC3)c1` (stereo not shown) [Example 9, 4-((benzyloxy)(1-methyl-1H-imidazol-5-yl)methyl)-2-(1,2-dihydro-5-acenaphthylenyl)benzonitrile hydrochloride] it is 64%. Under setting [1], `Cn1cncc1CN(C(=O)c1ccccc1)c1ccc(C#N)c(-c2cccc3ccccc23)c1` [Example 235, N-(4-cyano-3-(1-naphthyl)phenyl)-N-((1-methyl-1H-imidazol-5-yl)methyl)benzamide] returned an inhibition at 1 µM of 100%. Same read-out and setting: the figure for `Cn1cncc1C(OCc1cccc(Cl)c1)c1ccc(C#N)c(-c2cccc3ccccc23)c1` (stereo not shown) [Example 273, 4-((1-methyl-1H-imidazol-5-yl)((3-chlorobenzyl)oxy)methyl)-2-(1-naphthyl)benzonitrile hydrochloride] is 100%; for `CCOC(=O)N1CCC(N(Cc2ccc(C#N)c(-c3cccc4ccccc34)c2)Cc2cncn2C)CC1` [Example 209, ethyl 4-((4-cyano-3-(1-naphthyl)benzyl)((1-methyl-1H-imidazol-5-yl)methyl)-amino)-1-piperidinecarboxylate] it is 93%. As to `Cc1ccccc1-c1cc(C(OCc2ccccc2[N+](=O)[O-])c2cncn2C)ccc1C#N.Cl` (stereo not shown) [Example 142], the “% Inhibition at 10^−6M” value came to 94%.

`Cn1cncc1C(SCc1ccc(C#N)cc1)c1ccc(C#N)c(-c2cccc3ccccc23)c1` (stereo not shown) [Example 62, 4-(((4-cyanobenzyl)sulfanyl)(1-methyl-1H-imidazol-5-yl)methyl)-2-(1-naphthyl)benzonitrile hydrochloride] came in with an inhibition at 1 µM under setting [1] of 100%. Consider `Cc1ccccc1-c1cc(C(OCc2cc(Cl)nc(Cl)c2)c2cncn2C)ccc1C#N` (stereo not shown) [Example 137, 5-(((2,6-dichloro-4-pyridinyl)methoxy)(1-methyl-1H-imidazol-5-yl)methyl)-2′-methyl(1,1′-biphenyl)-2-carbonitrile hydrochloride], for which, under setting [1], the inhibition at 1 µM came out at 96%. The compound `Cc1ccccc1-c1cc(C(OCc2ccc(Cl)c(Cl)c2)c2cncn2C)ccc1C#N` (stereo not shown) [Example 125, 5-(((3,4-dichlorobenzyl)oxy)(1-methyl-1H-imidazol-5-yl)methyl)-2′-methyl(1,1′-biphenyl)-2-carbonitrile hydrochloride] gave an inhibition at 1 µM under setting [1] of 97%. The same measure, in the same setting: the figure for `CCN(Cc1ccc(C#N)cc1)C(c1ccc(C#N)c(-c2ccccc2C)c1)c1cncn1C` (stereo not shown) [Example 28, 5-(((4-cyanobenzyl)(ethyl)amino)(1-methyl-1H-imidazol-5-yl)methyl)-2′-methyl(1,1′-biphenyl)-2-carbonitrile dihydrochloride] is 100%. Still for that read-out and setting: the figure for `COC(=O)c1ccc(COC(c2ccc(C#N)c(-c3ccccc3C(F)(F)F)c2)c2cncn2C)nc1` (stereo not shown) [Example 277, methyl 6-(((6-cyano-2′-(trifluoromethyl)(1,1′-biphenyl)-3-yl)(1-methyl-1H-imidazol-5-yl)methoxy)methyl)nicotinate dihydrochloride] is 95%; for `Cc1cccc(-c2cc(C(OCc3ccc(C#N)cn3)c3cncn3C)ccc2C#N)c1C` (stereo not shown) [Example 281, 6-(((6-cyano-2′,3′-dimethyl(1,1′-biphenyl)-3-yl)(1-methyl-1H-imidazol-5-yl)methoxy)methyl)nicotinonitrile dihydrochloride] it is 98%; for `Cc1ccccc1-c1cc(C(OCc2c(Cl)cccc2Cl)c2cncn2C)ccc1C#N` (stereo not shown) [Example 124, 5-(((2,6-dichlorobenzyl)oxy)(1-methyl-1H-imidazol-5-yl)methyl)-2′-methyl(1,1′-biphenyl)-2-carbonitrile hydrochloride] it is 90%. Still for that read-out and setting: the figure for `Cn1cncc1CN(Cc1ccc(C(=O)O)cc1)Cc1ccc(C#N)c(-c2cccc3ccccc23)c1` [Example 193, 4-(((4-cyano-3-(1-naphthyl)benzyl)((1-methyl-1H-imidazol-5-yl)methyl)amino)methyl)benzoic acid dihydrochloride] is 91%. Under setting [1], `Cc1ccc(-c2cc(C(OCc3ccccc3)c3cncn3C)ccc2C#N)cc1` (stereo not shown) [Example 93, 5-((benzyloxy)(1-methyl-1H-imidazol-5-yl)methyl)-4′-methyl(1,1′-biphenyl)-2-carbonitrile hydrochloride] yielded an inhibition at 1 µM of 58%. Regarding `Cc1ccccc1-c1cc(C(OCc2cccc(C(F)(F)F)c2)c2cncn2C)ccc1C#N.Cl` (stereo not shown) [Example 123], the “% Inhibition at 10^−6M” value is listed as 97%. In the case of `Cc1ccccc1-c1cc(C(O)c2cncs2)ccc1C#N` (stereo not shown) [Example 214, 5-(hydroxy(1,3-thiazol-5-yl)methyl)-2′-methyl(1,1′-biphenyl)-2-carbonitrile], the inhibition at 1 µM under setting [1] was 20%. Take `Cc1ccccc1-c1cc(C(OCc2ccc(F)c(F)c2)c2cncn2C)ccc1C#N` (stereo not shown) [Example 147, 5-(((3,4-difluorobenzyl)oxy)(1-methyl-1H-imidazol-5-yl)methyl)-2′-methyl(1,1′-biphenyl)-2-carbonitrile hydrochloride]: under setting [1], testing at 1 µM gave an inhibition of 96%.

`COC(=O)c1ccc(CN(Cc2ccc(C#N)c(-c3cccc4ccccc34)c2)Cc2cncn2C)nc1` [Example 208, methyl 6-(((4-cyano-3-(1-naphthyl)benzyl)((1-methyl-1H-imidazol-5-yl)methyl)-amino)-methyl)nicotinate] came in with an inhibition at 1 µM under setting [1] of 95%. Still for that read-out and setting: the figure for `Cc1ccccc1-c1cc(CNc2cccnc2)ccc1C#N` [Example 212, 2′-methyl-5-((3-pyridinylamino)methyl)(1,1′-biphenyl)-2-carbonitrile] is 10%. Consider `Cl.Cn1cncc1C(OCc1ccccc1)c1ccc(C#N)c(-c2c3ccccc3cc3ccccc23)c1` (stereo not shown) [Example 7], for which the “% Inhibition at 10^−6M” value under setting [1] is given as 92%. `Cn1cncc1C(OCc1ccc(C#N)c(-c2cccc3ccccc23)c1)c1ccccc1` (stereo not shown) [Example 256, 4-(((1-methyl-1H-imidazol-5-yl)(phenyl)methoxy)methyl)-2-(1-naphthyl)benzonitrile hydrochloride]: at 1 µM the inhibition under setting [1] was 94%. `Cc1ccccc1-c1cc(C(OCc2c(C)ccc3ccccc23)c2cncn2C)ccc1C#N.Cl` (stereo not shown) [Example 178]: the “% Inhibition at 10^−6M” value was 90%.
